Test results from patent publication US20230203060A1 (GENFLEET THERAPEUTICS (SHANGHAI) INC., priority 2020, published 2023).
pIC50: −log10 of the molar value.

Biological target: T1, KRAS G12C (Homo sapiens, UniProt P01116, G12C)
T1 construct: purchased Reactionbiology
Test: KRAS G12C NEA-HTRF experiment (SOS1-catalyzed displacement of GDP by GTP)
Type: biochemical
How it was run: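 His-tagged KRAS G12C preloaded with DY647-GDP was preincubated 15 min at 20 °C with compound, then exchanged with SOS1 (0.2 μM working solution) and GTP (200 μM working solution) for 2 h at 20 °C in the dark. HTRF 665/615 nm ratio with anti-His-Tb was normalised to T0 and no-compound controls; IC50 by four-parameter fit.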

T1 sequence (P01116 1-188 isoform P01116-2 G12C): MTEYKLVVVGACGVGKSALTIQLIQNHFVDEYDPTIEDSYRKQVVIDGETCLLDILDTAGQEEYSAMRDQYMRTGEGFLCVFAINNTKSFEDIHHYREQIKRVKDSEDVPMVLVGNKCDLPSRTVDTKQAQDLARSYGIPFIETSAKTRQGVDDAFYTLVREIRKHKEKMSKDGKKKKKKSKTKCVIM

pIC50	Structure (SMILES)
8.05	C=CC(=O)N1CCN2C(=O)c3c(N4CCN(C(=O)C5CC5)C[C@@H]4C)nc(-c4c(O)cccc4F)c(Cl)c3OC[C@H]2C1 [Z320-1, (6aR)-8-acryloyl-4-chloro-1-((S)-4-(cyclopropanecarbonyl)-2-methylpiperazin-1-yl)-3-(2-fluoro-6-hydroxyphenyl)-6,6a,7,8,9,10-hexahydro-12H-pyrazino[2,1-c]pyrido[3,4-f][1,4]oxazepin-12-one]
8.10	C=CC(=O)N1CCN2C(=O)c3c(N4CC(N(C)C5COC5)CC4(C)C)nc(-c4c(O)cccc4F)c(Cl)c3OC[C@H]2C1 (stereo partly drawn) [Z326, (6aR)-8-acryloyl-4-chloro-1-(2,2-dimethyl-4-(methyl(oxetan-3-yl)amino)pyrrolidin-1-yl)-3-(2-fluoro-6-hydroxyphenyl)-6,6a,7,8,9,10-hexahydro-12H-pyrazino[2,1-c]pyrido[3,4-f][1,4]oxazepin-12-one]
7.58	C=CC(=O)N1CCN2C(=O)c3c(N4C[C@@H](N(C)CCOC)C[C@@H]4C)nc(-c4c(O)cccc4F)c(Cl)c3OC[C@H]2C1 [Z358-1]
7.43	C=CC(=O)N1CCN2C(=O)c3c(N4CC[C@H](N(C)C)C4(C)C)nc(-c4c(O)cccc4F)c(Cl)c3OC[C@H]2C1 (single isomer, unassigned) [Z360-2]
7.08	C=CC(=O)N1CCN2C(=O)c3c(N4C[C@@H](OC)C[C@@H]4C)nc(-c4c(O)cccc4F)c(F)c3OC[C@H]2C1 [Z359-1, (6aR)-8-actyloyl-4-fluoro-3-(2-fluoro-6-hydroxyphenyl)-1-((2S,4S)-4-methoxy-2-methylpyrrolidin-1-yl)-6,6a,7,8,9,10-hexahydro-12H-pyrazino[2,1-c]pyrido[3,4-f][1,4]oxazepin-12-one]
7.01	C=CC(=O)N1CCN2C(=O)c3c(N4CC[C@@H](N(C)C)C4(C)C)nc(-c4c(O)cccc4F)c(Cl)c3OC[C@H]2C1 (single isomer, unassigned) [Z360-1]
7.11	C=CC(=O)N1CCN2C(=O)c3c(N4CCN(CCOC)C(C)(C)C4)nc(-c4c(O)cccc4F)c(Cl)c3OC[C@H]2C1 [Z321, (6aR)-8-acryloyl-4-chloro-3-(2-fluoro-6-hydroxyphenyl)-1-(4-(2-methoxyethyl)-3,3-dimethylpiperazin-1-yl)-6,6a,7,8,9,10-hexahydro-12H-pyrazino[2,1-c]pyrido[3,4-f][1,4]oxazepin-12-one]
8.05	C=CC(=O)N1CCN2C(=O)c3c(N4CCN(C(=O)CC)C[C@@H]4C)nc(-c4c(O)cccc4F)c(Cl)c3OC[C@H]2C1 [Z316-1, (6aR)-8-acryloyl-4-chloro-3-(2-fluoro-6-hydroxyphenyl)-1-((S)-2-methyl-4-propionylpiperazin-1-yl)-6,6a,7,8,9,10-hexahydro-12H-pyrazino[2,1-c]pyrido[3,4-f][1,4]oxazepin-12-one]
7.21	C=CC(=O)N1CCN2C(=O)c3c(N4CCN(CC)C(C)(C)C4)nc(-c4c(O)cccc4F)c(Cl)c3OC[C@H]2C1 [Z322, (6aR)-8-actyloyl-4-chloro-3-(2-fluoro-6-hydroxyphenyl)-1-(4-ethyl-3,3-dimethylpiperazin-1-yl)-6,6a,7,8,9,10-hexahydro-12H-pyrazino[2,1-c]pyrido[3,4-f][1,4]oxazepin-12-one]
6.72	C=CC(=O)N1CCN2C(=O)c3c(N4CCO[C@](C)(CO)C4)nc(-c4c(O)cccc4F)c(Cl)c3OC[C@H]2C1 (single isomer, unassigned) [Z333-1]

Second part, the compound before the results:

Structure (SMILES)	pIC50
C=CC(=O)N1CCN2C(=O)c3c(N4CCC(OC)C4(C)C)nc(-c4c(O)cccc4F)c(Cl)c3OC[C@H]2C1 (stereo partly drawn) [Z241a, (6aR)-8-acryloyl-4-chloro-3-(2-fluoro-6-hydroxyphenyl)-1-(3-methoxy-2,2-dimethylpyrrolidin-1-yl)-6,6a,7,8,9,10-hexahydro-12H-pyrazino[2,1-c]pyrido[3,4-f][1,4]oxazepin-12-one]	8.05
C=CC(=O)N1CCN2C(=O)c3c(N4C[C@@H](N5CCOCC5)CC4(C)C)nc(-c4c(O)cccc4F)c(Cl)c3OC[C@H]2C1 (single isomer, unassigned) [Z297-2]	8.10
C=CC(=O)N1CCN2C(=O)c3c(N4C[C@H](N5CCOCC5)CC4(C)C)nc(-c4c(O)cccc4F)c(Cl)c3OC[C@H]2C1 (single isomer, unassigned) [Z297-1]	7.72
C=CC(=O)N1CCN2C(=O)c3c(N4C[C@H](OC)CC4(C)C)nc(-c4c(O)cccc4F)c(Cl)c3OC[C@H]2C1 (single isomer, unassigned) [Z244-2]	8.30
C=CC(=O)N1CCN2C(=O)c3c(N4C[C@H](N(C)CCOC)CC4(C)C)nc(-c4c(O)cccc4F)c(Cl)c3OC[C@H]2C1 (single isomer, unassigned) [Z296-2]	7.41
C=CC(=O)N1CCN2C(=O)c3c(N4C[C@@](C)(O)CC4(C)C)nc(-c4c(O)cccc4F)c(Cl)c3OC[C@H]2C1 (single isomer, unassigned) [Z243-1]	8.15
C=CC(=O)N1CCN2C(=O)c3c(N4C[C@H](OC)C[C@@H]4C)nc(-c4c(O)cccc4F)c(Cl)c3OC[C@H]2C1 [Z259a, (6aR)-8-acryloyl-4-chloro-3-(2-fluoro-6-hydroxyphenyl)-1-((2S,4R)-4-methoxy-2-methylpyrrolidin-1-yl)-6,6a,7,8,9,10-hexahydro-12H-pyrazino[2,1-c]pyrido[3,4-f][1,4]oxazepin-12-one]	7.59
C=CC(=O)N1CCN2C(=O)c3c(N4C[C@H](O)[C@H]4C)nc(-c4c(O)cccc4F)c(Cl)c3OC[C@H]2C1 (single isomer, unassigned) [Z102-4]	6.99
